Results on 28 compounds are retold here after patent US20230045421A1 (priority 2018, published 2023).

The term EC50 denotes the concentration needed to bring the measured effect to its halfway point.

The first experiment has as its system HBV rcDNA. Nature of the experiment: HepDE19 assay with bDNA quantitation of HBV rcDNA. The experiment is classed as cell-based, hepatitis B virus. The following applies: HepDE19 assay, inhibition of formation of rcDNA; read-out: DE-19bDNA EC50. The method, boiled down: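 HepDE19 cells (HepG2-derived, Tet-regulated HBV replication) were deprived of tetracycline and then exposed to compounds for 7 days at 37 °C in 0.5% DMSO, 8-point titration from 25 μM. rcDNA was quantified by bDNA and EC50/EC90 came from 4-parameter fits. CC50 was measured by CellTiter-Glo ATP content on replicate plates after 4 days.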
In the case of `CC(c1cnc(NCCN)c2ccccc12)N(C)C(=O)Nc1ccc(F)c(Cl)c1` (single isomer, unassigned) [Compound 249, 1-(1-(1-((2-Aminoethyl)amino)isoquinolin-4-yl)ethyl)-3-(3-chloro-4-fluorophenyl)-1-methylurea], the EC50 was 14 µM.

`CCn1cc(C(C)N(C)C(=O)Nc2ccc(F)c(Cl)c2)c2ccccc2c1=O` (single isomer, unassigned) [Compound 184, 3-(3-Chloro-4-fluorophenyl)-1-(1-(2-ethyl-1-oxo-1,2-dihydroisoquinolin-4-yl)ethyl)-1-methylurea]: the EC50 was determined as 0.09 µM.

Regarding `CC(c1c[nH]c(=O)c2ccccc12)N(CC1CCOCC1)C(=O)Nc1ccc(F)c(Cl)c1` (single isomer, unassigned) [Compound 142, 3-(3-Chloro-4-fluorophenyl)-1-(1-(1-oxo-1,2-dihydroisoquinolin-4-yl)ethyl)-1-((tetrahydro-2H-pyran-4-yl)methyl)urea], the EC50 turned out to be 0.04 µM.

As for `CC(c1cn(C2CC2)c(=O)c2ccccc12)N(C)C(=O)Nc1ccc(F)c(Cl)c1` (single isomer, unassigned) [Compound 190, 3-(3-Chloro-4-fluorophenyl)-1-(1-(2-cyclopropyl-1-oxo-1,2-dihydroisoquinolin-4-yl)ethyl)-1-methylurea], the EC50 was 0.17 µM.

For `CC(c1c[nH]c(=O)c2ccccc12)N(CC1CCCCC1)C(=O)Nc1ccc(F)c(Cl)c1` (single isomer, unassigned) [Compound 195, 3-(3-Chloro-4-fluorophenyl)-1-(cyclohexylmethyl)-1-(1-(1-oxo-1,2-dihydroisoquinolin-4-yl)ethyl)urea], the EC50 was found to be 0.03 µM.

For `CC(c1c[nH]c(=O)c2ccccc12)N(Cc1c[nH]nn1)C(=O)Nc1ccc(F)c(Cl)c1` (single isomer, unassigned) [Compound 266, 1-((2H-1,2,3-Triazol-4-yl)methyl)-3-(3-chloro-4-fluorophenyl)-1-(1-(1-oxo-1,2-dihydroisoquinolin-4-yl)ethyl)urea], the EC50 was found to be 12 µM.

For the compound `CC(c1c[nH]c(=O)c2ccccc12)N(C(=O)Nc1ccc(F)c(Cl)c1)C1CC1` (single isomer, unassigned) [Compound 68, 3-(3-Chloro-4-fluorophenyl)-1-cyclopropyl-1-(1-(1-oxo-1,2-dihydroisoquinolin-4-yl)ethyl)urea], the EC50 came to 0.06 µM.

Staying with this experiment, now noted: HepDE19 assay, inhibition of formation of relaxed circular DNA (rcDNA), bDNA quantitation; read-out: DE-19bDNA EC50.
Turning to `CC(c1c[nH]c(=O)c2c(F)cc(F)cc12)N(CCS(N)(=O)=O)C(=O)Nc1ccc(F)c(Cl)c1` (single isomer, unassigned) [Compound 390, 2-(3-(3-Chloro-4-fluorophenyl)-1-(1-(6,8-difluoro-1-oxo-1,2-dihydroisoquinolin-4-yl)ethyl)ureido) ethane-1-sulfonamide], the EC50 worked out at 0.017 µM.

As to `CC(c1c[nH]c(=O)c2ccccc12)N(Cc1cncs1)C(=O)Nc1ccc(F)c(Cl)c1` (single isomer, unassigned) [Compound 324, 3-(3-Chloro-4-fluorophenyl)-1-(1-(1-oxo-1,2-dihydroisoquinolin-4-yl)ethyl)-1-(thiazol-5-ylmethyl)urea], the EC50 was 4.5 µM.

Regarding `CC(c1cnc(C(N)=O)c2ccccc12)N(C)C(=O)Nc1ccc(F)c(Cl)c1` (single isomer, unassigned) [Compound 328, 4-(1-(3-(3-Chloro-4-fluorophenyl)-1-methylureido)ethyl)isoquinoline-1-carboxamide], the EC50 amounted to 4.1 µM.

As for `CC(c1c[nH]c(=O)c2c(F)cccc12)N(CCCO)C(=O)Nc1ccc(F)c(Cl)c1` (single isomer, unassigned) [Compound 367, 3-(3-Chloro-4-fluorophenyl)-1-(1-(8-fluoro-1-oxo-1,2-dihydroisoquinolin-4-yl)ethyl)-1-(3-hydroxypropyl)urea], the EC50 is 0.008 µM.

Regarding `CC(c1cnc(C#N)c2ccccc12)N(C)C(=O)Nc1ccc(F)c(Cl)c1` (single isomer, unassigned) [Compound 336, 3-(3-Chloro-4-fluorophenyl)-1-(1-(1-cyanoisoquinolin-4-yl)ethyl)-1-methylurea], the EC50 is 19 µM.

Take `CC(c1c[nH]c(=O)c2ccccc12)N(Cc1ccccn1)C(=O)Nc1ccc(F)c(Cl)c1` (single isomer, unassigned) [Compound 304, 3-(3-Chloro-4-fluorophenyl)-1-(1-(1-oxo-1,2-dihydroisoquinolin-4-yl)ethyl)-1-(pyridin-2-ylmethyl) urea]: the EC50 is 9.6 µM.

Regarding `CC(c1c[nH]c(=O)c2cc(F)c(F)cc12)N(CCS(N)(=O)=O)C(=O)Nc1ccc(F)cc1` (single isomer, unassigned) [Compound 387, 2-(1-(1-(6,7-Difluoro-1-oxo-1,2-dihydroisoquinolin-4-yl)ethyl)-3-(4-fluorophenyl)ureido)ethane-1-sulfonamide], the EC50 stood at 0.04 µM.

With `CC(c1c[nH]c(=O)c2ccccc12)N(Cc1cncs1)C(=O)Nc1ccc(F)c(Cl)c1` (single isomer, unassigned) [Compound 323, 3-(3-Chloro-4-fluorophenyl)-1-(1-(1-oxo-1,2-dihydroisoquinolin-4-yl)ethyl)-1-(thiazol-5-ylmethyl)urea], the EC50 came out at 0.085 µM.

As for `CC(c1cnc(OCc2nc[nH]n2)c2cc(F)c(F)cc12)N(C)C(=O)Nc1ccc(F)c(Cl)c1` (single isomer, unassigned) [Compound 363, 1-(1-(1-((1H-1,2,4-Triazol-3-yl)methoxy)-6,7-difluoroisoquinolin-4-yl)ethyl)-3-(3-chloro-4-fluorophenyl)-1-methylurea], the EC50 was determined as 0.014 µM.

As to `CC(c1c[nH]c(=O)c2cc(F)c(F)cc12)N(C)C(=O)NCc1ccc(F)c(Cl)c1` (single isomer, unassigned) [Compound 484, 3-(3-Chloro-4-fluorobenzyl)-1-(1-(6,7-difluoro-1-oxo-1,2-dihydroisoquinolin-4-yl)ethyl)-1-methylurea], the EC50 is 14 µM.

On to `CC(c1c[nH]c(=O)c2c(F)c(F)ccc12)N(C)C(=O)NCc1ccc(F)c(Cl)c1` (single isomer, unassigned) [Compound 496, 3-(3-Chloro-4-fluorobenzyl)-1-(1-(7,8-difluoro-1-oxo-1,2-dihydroisoquinolin-4-yl)ethyl)-1-methylurea], for which the EC50 stood at 7.7 µM.

The same experiment, now with this note: Hepatitis B virus, HepDE19, HepDE19 assay, inhibition of formation of rcDNA; read-out: DE-19bDNA EC50.
Consider `CCN(Cc1cncc2ccccc12)C(=O)Nc1ccc(F)c(Cl)c1` [Compound 16, 3-(3-Chloro-4-fluorophenyl)-1-ethyl-1-(isoquinolin-4-ylmethyl)urea], for which the EC50 turned out to be 1.7 µM.

In the case of `C[C@H](c1c[nH]c(=O)c2ccccc12)N(C)C(=O)Nc1ccc(F)c(Cl)c1` [Compound 14, (R)-3-(3-chloro-4-fluorophenyl)-1-methyl-1-(1-(1-oxo-1,2-dihydroisoquinolin-4-yl)ethyl)urea], the EC50 worked out at 0.04 µM.

As to `COc1ncc(CN(C(=O)Nc2ccc(F)c(Cl)c2)C(C)C)c2ccccc12` [Compound 19, 3-(3-Chloro-4-fluorophenyl)-1-isopropyl-1-((1-methoxyisoquinolin-4-yl)methyl)urea], the EC50 was 2.1 µM.

`COCCCn1cc(C(C)N(C)C(=O)Nc2ccc(F)c(Cl)c2)c2ccccc2c1=O` (single isomer, unassigned) [Compound 200, 3-(3-Chloro-4-fluorophenyl)-1-(1-(2-(3-methoxypropyl)-1-oxo-1,2-dihydroisoquinolin-4-yl)ethyl)-1-methylurea]: the EC50 was found to be 0.4 µM.

In the case of `C[C@H](c1c[nH]c(=O)c2ccccc12)N(C)C(=O)Nc1ccc(F)c(C(F)(F)F)c1` [Compound 89, (R)-3-(4-Fluoro-3-(trifluoromethyl)phenyl)-1-methyl-1-(1-(1-oxo-1,2-dihydroisoquinolin-4-yl)ethyl)urea], the EC50 is 0.32 µM.

The same experiment, now with this note: Hepatitis B virus, HepDE19, HepDE19 assay, inhibition of formation of relaxed circular DNA (rcDNA), bDNA quantitation; read-out: DE-19bDNA EC50.
On to `CC(c1c[nH]c(=O)c2c(F)c(F)ccc12)N(CCS(N)(=O)=O)C(=O)Nc1ccc(F)c(Cl)c1` (racemic) [Compound 393, 2-(3-(3-chloro-4-fluorophenyl)-1-(1-(7,8-difluoro-1-oxo-1,2-dihydroisoquinolin-4-yl)ethyl)ureido) ethane-1-sulfonamide], for which the EC50 is 0.037 µM.

Staying with this experiment, now noted: Hepatitis B virus, HepDE19, read-out: DE-19bDNA EC50 (μM), HepDE19 assay, inhibition of formation of rcDNA.
For the compound `C[C@H](c1c[nH]c(=O)c2ccccc12)N(C)C(=O)Nc1cccc(F)c1` [Compound 93, (R)-3-(3-Fluorophenyl)-1-methyl-1-(1-(1-oxo-1,2-dihydroisoquinolin-4-yl)ethyl)urea], the EC50 amounted to 0.52 µM.

The experiment is the same for the next values; noted with them: Hepatitis B virus, HepDE19, read-out: DE-19bDNA EC50 (μM), HepDE19 assay, inhibition of formation of relaxed circular DNA (rcDNA), bDNA quantitation.
With `CC(c1c[nH]c(=O)c2cc(F)c(F)cc12)N(C)C(=O)N[C@H](C)c1ccccc1` (single isomer, unassigned) [Compound 479], the concentration giving a half-maximal response (EC50) was found to be 9.4 µM.

Still in this experiment, the particulars now being: read-out: DE-19bDNA EC50; HepDE19 assay, inhibition of formation of rcDNA.
In the case of `CCN(C(=O)Nc1ccc(F)c(Cl)c1)C(c1c[nH]c(=O)c2ccccc12)C(C)C` (single isomer, unassigned) [Compound 55, 3-(3-Chloro-4-fluorophenyl)-1-ethyl-1-(2-methyl-1-(1-oxo-1,2-dihydroisoquinolin-4-yl)propyl)urea], the EC50 came to 11 µM.

Staying with this experiment, now noted: read-out: DE-19bDNA EC50; HepDE19 assay, inhibition of formation of relaxed circular DNA (rcDNA), bDNA quantitation.
In the case of `CC(c1c[nH]c(=O)c2cc(F)c(F)cc12)N(C)C(=O)Nc1ccc(Cl)cc1` (single isomer, unassigned) [Compound 400, 3-(4-Chlorophenyl)-1-(1-(6,7-difluoro-1-oxo-1,2-dihydroisoquinolin-4-yl)ethyl)-1-methylurea], the EC50 was 7.2 µM.
